Values of other authors, collected in US10927398B2, “Compositions for CYP450 phenotyping using saliva samples” (Concordia University, Inc., priority 2015, dated 2021).
Where two headings read alike, the source gives them in different places.

Experiments:
[1] = cited from earlier work
[2] = cited from earlier work; remark: listed apart in the source
[3] = tested on: plasma protein; conditions: cited from earlier work
[4] = Table of Exemplary Drugs, CYP3A4
[5] = Table of Exemplary Drugs, CYP1A2
[6] = Table of Exemplary Drugs, CYP2C19
[7] = Table of Exemplary Drugs, CYP2D6
[8] = Table of Exemplary Drugs, CYP2C9

C[C@H](/C=C/[C@H](C)C(C)(C)O)[C@H]1CC[C@H]2/C(=C/C=C3C[C@@H](O)C[C@H](O)C3)CCC[C@]12C [Paricalcitol (Zemplar), Paricalcitol]
ORAL BIOAVAILABILITY [1, 4]: 72%
HALF-LIFE [2, 4]: 5 to 7 h

CCOc1cc(CC(=O)N[C@@H](CC(C)C)c2ccccc2N2CCCCC2)ccc1C(=O)O [Repaglinide (Prandin), Repaglinide]
PLASMA PROTEIN BINDING [3, 4]: >98%
ORAL BIOAVAILABILITY [1, 4]: 56%
HALF-LIFE [2, 4]: 1 h

CC(C)NCC(O)COc1cccc2ccccc12 (stereo not shown) [Propranolol]
ORAL BIOAVAILABILITY [1, 5]: 100%
ORAL BIOAVAILABILITY [1, 6]: 30-70%
ORAL BIOAVAILABILITY [1, 7]: 30-70%
HALF-LIFE [2, 5]: 4 h
HALF-LIFE [2, 6]: 3 to 6 h
HALF-LIFE [2, 7]: 3 to 6 h

CC#C[C@]1(O)CC[C@H]2[C@@H]3CCC4=CC(=O)CCC4=C3[C@@H](c3ccc(N(C)C)cc3)C[C@@]21C [Mifepristone (Mifeprex), Mifepristone]
PLASMA PROTEIN BINDING [3, 4]: 99.2%^
ORAL BIOAVAILABILITY [1, 4]: 69%
HALF-LIFE [2, 4]: 20 to 85 h

CN1[C@@H]2CC[C@H]1C[C@@H](OC(=O)c1c[nH]c3ccccc13)C2 [Tropisetron]
PLASMA PROTEIN BINDING [3, 7]: 71%
ORAL BIOAVAILABILITY [1, 7]: 60-100%
HALF-LIFE [2, 7]: 5.6 to 8.6 h

Cc1ccc(S(=O)(=O)NC(=O)NN2CC3CCCC3C2)cc1 (stereo not shown) [Gliclazide]
PLASMA PROTEIN BINDING [3, 6]: 85-99% ^
ORAL BIOAVAILABILITY [1, 6]: 80%
HALF-LIFE [2, 6]: 8 to 12 h

Nc1ccc(S(=O)(=O)c2ccc(N)cc2)cc1 [Dapsone (Avlosulfon), Dapsone]
PLASMA PROTEIN BINDING [3, 4]: 70-90% ^
ORAL BIOAVAILABILITY [1, 4]: 86-104%

C[C@]12C=CC(=O)N[C@@H]1CC[C@@H]1[C@@H]2CC[C@]2(C)[C@@H](C(=O)Nc3cc(C(F)(F)F)ccc3C(F)(F)F)CC[C@@H]12 [Dutasteride (Avodart), Dutasteride]
PLASMA PROTEIN BINDING [3, 4]: 99%
ORAL BIOAVAILABILITY [1, 4]: 60%
HALF-LIFE [2, 4]: 5 weeks

COc1cc2c(c(OC)c1OC)-c1ccc(OC)c(=O)cc1[C@@H](NC(C)=O)CC2 [Colchicine]
ORAL BIOAVAILABILITY [1, 4]: 45%
HALF-LIFE [2, 4]: 26.6 to 31.2 h

C=CC[C@@H]1/C=C(\C)C[C@H](C)C[C@H](OC)[C@H]2O[C@@](O)(C(=O)C(=O)N3CCCC[C@H]3C(=O)O[C@H](/C(C)=C/[C@@H]3CC[C@@H](O)[C@H](OC)C3)[C@H](C)[C@@H](O)CC1=O)[C@H](C)C[C@@H]2OC [Tacrolimus (Prograf), Tacrolimus]
PLASMA PROTEIN BINDING [3, 4]: 99%
ORAL BIOAVAILABILITY [1, 4]: 17-31%
HALF-LIFE [2, 4]: 8.7 to 37.9 h

Cc1ccnc2c1NC(=O)c1cccnc1N2C1CC1 [Nevirapine (Viramune), Nevirapine]
PLASMA PROTEIN BINDING [3, 4]: 60%
ORAL BIOAVAILABILITY [1, 4]: 80-94%
HALF-LIFE [2, 4]: 25 to 45 h

[H]/N=C(/N)N/C(=N/[H])NCCc1ccccc1 [Phenformin]
PLASMA PROTEIN BINDING [3, 7]: 12-20% ^
ORAL BIOAVAILABILITY [1, 7]: 40-60%
HALF-LIFE [2, 7]: 4 to 13 h

CCC1(C)CC(=O)NC1=O (stereo not shown) [Ethosuximide (Zarontin), Ethosuximide]
ORAL BIOAVAILABILITY [1, 4]: 93%
HALF-LIFE [2, 4]: 25 to 60 h

CN(C)C(=O)C(CCN1CCC(O)(c2ccc(Cl)cc2)CC1)(c1ccccc1)c1ccccc1 [Loperamide (Imodium), Loperamide]
ORAL BIOAVAILABILITY [1, 4]: 0.30%
HALF-LIFE [2, 4]: 9 to 14 h

C=C[C@H]1C[N@@]2CC[C@H]1C[C@@H]2[C@@H](O)c1ccnc2ccc(OC)cc12 [Quinidine]
PLASMA PROTEIN BINDING [3, 4]: 50-88% ^
ORAL BIOAVAILABILITY [1, 4]: 70-80%

CC(C)COCC(CN(Cc1ccccc1)c1ccccc1)N1CCCC1 (stereo not shown) [Bepridil (Vascor), Bepridil]
ORAL BIOAVAILABILITY [1, 4]: 60%
HALF-LIFE [2, 4]: 42 h

CC1(C)O[C@@H]2[C@@H](CO[C@@]3(COS(N)(=O)=O)OC(C)(C)O[C@@H]23)O1 [Topiramate (Topamax), Topiramate]
PLASMA PROTEIN BINDING [3, 4]: 15-41% ^
ORAL BIOAVAILABILITY [1, 4]: 80%

COc1cc2ncnc(Nc3ccc(F)c(Cl)c3)c2cc1OCCCN1CCOCC1 [Gefitinib (Iressa), Gefitinib]
ORAL BIOAVAILABILITY [1, 4]: 60%

CC(C)(C)NC[C@H](O)COc1nsnc1N1CCOCC1 [Timolol]
PLASMA PROTEIN BINDING [3, 7]: <10%
ORAL BIOAVAILABILITY [1, 7]: 90%

CC(C)Cc1ccc(C(C)C(=O)O)cc1 (stereo not shown) [Ibuprofen]
ORAL BIOAVAILABILITY [1, 8]: 87-100%

Cc1cc2c(s1)Nc1ccccc1N=C2N1CCN(C)CC1 [Olanzapine]
ORAL BIOAVAILABILITY [1, 5]: 87%
HALF-LIFE [2, 5]: 21 to 54 h

CN1C[C@H](C(=O)N[C@]2(C)O[C@@]3(O)[C@@H]4CCCN4C(=O)[C@H](Cc4ccccc4)N3C2=O)C=C2c3cccc4[nH]cc(c34)C[C@H]21 [Ergotamine (Ergomar), Ergotamine]
ORAL BIOAVAILABILITY ([1]; in vivo, po): <5%
HALF-LIFE ([2]; in vivo): 1.5 to 2.5 h

COc1ccc(C(CN(C)C)C2(O)CCCCC2)cc1 (stereo not shown) [Venlafaxine]
PLASMA PROTEIN BINDING [3, 7]: 27-30% ^
ORAL BIOAVAILABILITY [1, 7]: 12.6%

C=C[C@H]1C[N@@]2CC[C@H]1C[C@H]2[C@H](O)c1ccnc2ccc(OC)cc12 [Quinine]
ORAL BIOAVAILABILITY [1, 4]: 76-88%

CC(N)Cc1ccccc1 (stereo not shown) [Amphetamine]
ORAL BIOAVAILABILITY ([1]; in vivo, po): 100+%

CN(C)CCc1c[nH]c2ccc(C[C@H]3COC(=O)N3)cc12 [Zolmitriptan]
PLASMA PROTEIN BINDING [3, 5]: 25%
ORAL BIOAVAILABILITY [1, 5]: ~40%

O=C(O)Cc1ccccc1Nc1c(Cl)cccc1Cl [Diclofenac]
ORAL BIOAVAILABILITY [1, 8]: 50%
HALF-LIFE [2, 8]: 1.9 to 2.2 h

CC(C)CN(C[C@@H](O)[C@H](Cc1ccccc1)NC(=O)O[C@H]1CO[C@H]2OCC[C@H]21)S(=O)(=O)c1ccc(N)cc1 [Darunavir (Prezista), Darunavir]
ORAL BIOAVAILABILITY [1, 4]: 37%

CN1CCN2c3ncccc3Cc3ccccc3C2C1 (stereo not shown) [Mirtazapine]
ORAL BIOAVAILABILITY [1, 7]: 50%

CN(C)CCCN1c2ccccc2CCc2ccccc21 [Imipramine]
PLASMA PROTEIN BINDING [3, 5]: 60-96% ^
PLASMA PROTEIN BINDING [3, 6]: 89%
PLASMA PROTEIN BINDING [3, 7]: 89%
ORAL BIOAVAILABILITY [1, 5]: 22-77%
ORAL BIOAVAILABILITY [1, 6]: 94-96%
ORAL BIOAVAILABILITY [1, 7]: 94-96%

Clc1ccc2nsnc2c1NC1=NCCN1 [Tizanidine]
PLASMA PROTEIN BINDING [3, 5]: 30%
ORAL BIOAVAILABILITY [1, 5]: 40%

CC(C)(C)NC(=O)[C@H]1CC[C@H]2[C@@H]3CC[C@H]4NC(=O)C=C[C@]4(C)[C@H]3CC[C@]12C [Finasteride (Proscar), Finasteride]
ORAL BIOAVAILABILITY [1, 4]: 65%
HALF-LIFE [2, 4]: 4.5 h

CCOC(=O)C1=C(COCCN)NC(C)=C(C(=O)OC)C1c1ccccc1Cl (stereo not shown) [Amlodipine (Norvasc), Amlodipine]
ORAL BIOAVAILABILITY [1, 4]: 64-90%

COc1cc([C@@H]2c3cc4c(cc3[C@@H](O[C@@H]3O[C@@H]5CO[C@@H](c6cccs6)O[C@H]5[C@H](O)[C@H]3O)[C@H]3COC(=O)[C@H]23)OCO4)cc(OC)c1O [Teniposide]
PLASMA PROTEIN BINDING [3, 6]: >99%
PLASMA PROTEIN BINDING [3, 4]: >99%
HALF-LIFE [2, 6]: 5 h
HALF-LIFE [2, 4]: 5 h

O=P1(N(CCCl)CCCl)NCCCO1 (stereo not shown) [Cyclophosphamide]
PLASMA PROTEIN BINDING ([3]; plasma): >60%
HALF-LIFE ([2]; in vivo): 3 to 12 h

COc1ccc2[nH]cc(CCNC(C)=O)c2c1 [Melatonin]
ORAL BIOAVAILABILITY [1, 5]: 3-76%
HALF-LIFE [2, 5]: 0.583 to 0.833 h

COc1ccc2c(c1)N(C[C@H](C)CN(C)C)c1ccccc1S2 [Levomepromazine]
ORAL BIOAVAILABILITY [1, 7]: 50-60%
HALF-LIFE [2, 7]: 15 h

CC[C@]1(O)C[C@@H]2CN(CCc3c([nH]c4ccccc34)[C@@](C(=O)OC)(c3cc4c(cc3OC)N(C)[C@H]3[C@@](O)(C(=O)OC)[C@H](OC(C)=O)[C@]5(CC)C=CCN6CC[C@]43[C@@H]65)C2)C1 [Vinblastine (Velbane), Vinblastine]
PLASMA PROTEIN BINDING [3, 4]: 98-99.7% ^
HALF-LIFE [2, 4]: 24.8 h

O=C1Cc2cc(CCN3CCN(c4nsc5ccccc45)CC3)c(Cl)cc2N1 [Ziprasidone (Geodon), Ziprasidone]
ORAL BIOAVAILABILITY [1, 4]: 60%
HALF-LIFE [2, 4]: 7 h

CCOC(=O)C1=C(C)NC(C)=C(C(=O)OC)C1c1cccc(Cl)c1Cl (stereo not shown) [Felodipine (Plendil), Felodipine]
ORAL BIOAVAILABILITY [1, 4]: 13-20%

Fc1ccc([C@@H]2CCNC[C@H]2COc2ccc3c(c2)OCO3)cc1 [Paroxetine]
PLASMA PROTEIN BINDING [3, 7]: 93-95% ^
HALF-LIFE [2, 7]: 15 to 21 h

OCCOCCN1CCN(C2=Nc3ccccc3Sc3ccccc32)CC1 [Quetiapine (Seroquel), Quetiapine]
PLASMA PROTEIN BINDING [3, 4]: 83%
HALF-LIFE [2, 4]: 6 to 7 h

OCCN1CCN(CCCN2c3ccccc3Sc3ccc(Cl)cc32)CC1 [Perphenazine]
ORAL BIOAVAILABILITY [1, 7]: 20%
HALF-LIFE [2, 7]: 9 to 12 h

Cc1nnc2n1-c1ccc(Cl)cc1C(c1ccccc1Cl)=NC2 [Triazolam (Halcion), Triazolam]
PLASMA PROTEIN BINDING ([3]; plasma): 89-94% ^
HALF-LIFE ([2]; in vivo): 2.3 h

CC1OC2(CS1)CN1CCC2CC1 (stereo not shown) [Cevimeline (Evoxac), Cevimeline]
PLASMA PROTEIN BINDING [3, 4]: <20%
HALF-LIFE [2, 4]: 4 to 6 h
